Data: US12053465B2, “KCC2 expression enhancing compounds and uses thereof” (Whitehead Institute for Biomedical Research, priority 2017, dated 2024)
Where a SMILES comes first, the peptide text is derived from it. [ ]: non-standard residue; d: D form. The star is where a group is joined. Sta = CC(C)C[C@H](N)[C@@H](O)CC(=O)O; Isovaleryl = CC(C)CC(=O)*

The molecules below were run on KCC2 expression (KCC2-2A-luciferase reporter) (assay: KCC2-2A-luciferase reporter compound screening with RTT KCC2 reporter neurons). Settings: MECP2-null RTT human KCC2 reporter neurons; LINCS, SMART, ICCB libraries; Luc/CTG normalized to in-plate DMSO; hit = B score >3.
Assay type: cell-based, human
Method: The RTT KCC2-2A-luciferase reporter neurons were treated with the test compounds from the LINCS kinase inhibitor library and IRSF SMART compound library and incubated before being lysed. The cell lysate was divided into two parts to measure luciferase signal (KCC2 translation) and Cell-Titer Glow (CTG, amount of ATP). The luciferase signal was normalized to CTG for each well, and the Luc/CTG ratio was normalized to the in-plate DMSO negative control to calculate fold change ratio.
Additional screens for reporter activation in the MECP2-null RTT human KCC2 reporter neurons (isogenic to the WT reporter cells used above) were performed with the LINCS and SMART libraries as well as the ICCB known bioactive library and identified hits as compounds with B score >3.
The cells were dissociated with Accutase and resuspended in 10 ml neuronal differentiation medium to count cells. The cells were then diluted to the final density of 200,000 to 500,000 cells/ml. Matrigel was added to the cell suspension at a dilution ratio of 1:300 to promote cell adhesion after plating. AraC was added to cell suspension at the concentration of 2 μM to inhibit cell division. The cells were plated into 96-well plates with an automated cell seeding machine using the following protocol: The neuron flask was washed with PBS. The neurons were digested off the plate with Accutase for 30 minutes at 37° C. Next, the dissociated cells were collected and spun down at 750 rpm for 5 minutes. The cell pellet was dissociated by gentle trituration with P1000 pipet and the cells were resuspended with 10 ml of neuronal medium. Then, the cells were filtered through a 40 μm cell strainer (Falcon) to get rid of clumps. The resulting single-cell suspension was counted using a Countess automated cell counter (Invitrogen Countess Automated Cell Counter, Catalog no. C10227). The neurons were resuspended with neuronal medium to 10× of the destination density (100,000 cells to 400,000 cells per ml). The cells were plated with a multichannel pipette, or proceeded to the machine-plating protocol described below:
The day after cell seeding, small molecule compounds from the IRSF (International Rett Syndrome Foundation) library were prepared at a concentration of 1 mM and dispensed into a blank V-bottomed test plates at 2 μl per well. Compound solvent DMSO was included in every plate as control. Using a liquid handling robot, about 80 μl of culture medium were discarded. Neuronal medium in the volume of 200 μl was added to the V-bottom test plate that contained 2 μl of 1 mM compounds, and mixed with compounds by pipetting up-and-down 3 times. The medium that contained the 10 μM compounds was then applied to the neuronal cell culture and incubated for 2 weeks before cell lysis and luciferase assay were performed.
(§1) The cells were dissociated with Accutase, resuspended in 10 ml neuronal differentiation medium to count cells. the final cell seeding density was 20 k-40 k cells per well for 96-well plates, and ˜10 k cells per well for 384-well plates. Matrigel was added to the cell suspension at a dilution ratio of 1:300 to promote cell adhesion after plating. AraC were added to the cell suspension at the concentration of 0.5 μM to inhibit astroglial cell division. The cells were dispensed into 96-well or 384-well plates (Coming) using a BioTek EL406 plate dispenser. […] The neurons were incubated with the compounds at 37° C./5% CO2 for a week before the luciferase assay.
The cells used for luciferase assay were KCC2 reporter neurons differentiated for 4 weeks, and treated with drug in 96-well format for 2 weeks. Cell density was between 20 k-40 k cells per well.
On the day of the luciferase assay, the cells were washed with PBS for two times, and 100 μl of cell lysis buffer was applied to the washed cells. The cell plates were transferred to a rocker to shake for 10 minutes in order to fully lyse the cells.

| Structure (SMILES) | B Score |
| --- | --- |
| COc1cc2c(Oc3ccc(NC(=O)C4(C(=O)Nc5ccc(F)cc5)CC4)cc3F)ccnc2cc1OCCCN1CCOCC1 [Foretinib, N1′-[3-fluoro-4-[[6-methoxy-7-(3-morpholinopropoxy)-4-quinolyl]oxy]phenyl]-N1-(4-fluorophenyl)cyclopropane-1,1-dicarboxamide] | 4.05 |
| O=c1c(-c2ccc(O)cc2)coc2cc(O)cc(O)c12 [Genistein, 4',5,7-Trihydroxyisoflavone] | 5.11 |
| C[C@H](NCc1ccc(OCc2cccc(F)c2)cc1)C(N)=O [Safinamide, (2S)-2-[[4-[(3-fluorophenyl)methoxy]phenyl]methylamino] propanamide] | 4.82 |
| O=c1c(O)c(-c2ccc(O)cc2)oc2cc(O)cc(O)c12 [Kaempferol, 3,5,7-Trihydroxy-2-(4-hydroxyphenyl)-4H-chromen-4-one] | 3.92 |
| O=c1c(-c2ccc(O)cc2)coc2cc(O)ccc12 [Daidzein, 7-hydroxy-3-(4-hydroxyphenyl)-4H-chromen-4-one] | 4.64 |
| CC(C)(O)[C@H]1O[C@H]2CC[C@@]3(C)[C@@](O)(CC[C@H]4Cc5c([nH]c6ccccc56)[C@@]43C)C2=CC1=O [Paxilline, (2R,4bS,6aS,12bS,12cR,14aS)-5,6,6a,7,12,12b,12c,13,14,14a-Decahydro-4b-hydroxy-2-(1-hydroxy-1-methylethyl)-12b,12c-dimethyl-2H-pyrano[2″,3″:5',6']benz[1',2':6,7]indeno[1,2-b]indol-3(4bH)-one] | 4.1 |
| NC[C@H](CC(=O)O)c1ccc(Cl)cc1 [(R)-Baclofen] | 6.65 |
| O=c1cc(-c2ccccc2)oc2c(O)c(O)ccc12 [7,8-Dihydroxyflavone] | 4.01 |
| CC(C)CC(=O)N[C@H](C(=O)N[C@H](C(=O)N[C@@H](CC(C)C)[C@@H](O)CC(=O)N[C@@H](C)C(=O)N[C@@H](CC(C)C)[C@@H](O)CC(=O)O)C(C)C)C(C)C [Pepstatin, Isovalery-Val-Val-Sta-Ala-Sta] (Isovaleryl-VV[Sta]A[Sta]-OH) | 8.64 |
| CC(C)[C@@H]1NC(=O)[C@H](C)OC(=O)[C@@H](C(C)C)NC(=O)[C@@H](C(C)C)OC(=O)[C@H](C(C)C)NC(=O)[C@H](C)OC(=O)[C@@H](C(C)C)NC(=O)[C@@H](C(C)C)OC(=O)[C@H](C(C)C)NC(=O)[C@H](C)OC(=O)[C@@H](C(C)C)NC(=O)[C@@H](C(C)C)OC1=O [Valinomycin, Cyclo-(L-Val-D-HyIva-D-Val-L-Lac-)3] | 4.49 |
| O=c1c(O)c(-c2ccc(O)c(O)c2)oc2cc(O)cc(O)c12 [Quercetin-2H2O, 2-(3,4-dihydroxyphenyl)-3,5,7-trihydroxy-4H-chromen-4-one] | 7.76 |
| O=C(O)c1cccc(-c2noc(-c3ccccc3F)n2)c1 [Ataluren, 3-[5-(2-Fluorophenyl)-1,2,4-oxadiazol-3-yl]benzoic acid] | 7.43 |
| CCOc1ccn(-c2ccc(F)cc2)c(=O)c1C(=O)Nc1ccc(Oc2ccnc(N)c2Cl)c(F)c1 [BMS 777607, N-(4-(2-amino-3-chloropyridin-4-yloxy)-3-fluorophenyl)-4-ethoxy-1-(4-fluorophenyl)-2-oxo-1,2-dihydropyridine-3-carboxamide] | 11.97 |
| O=C(Nc1ccc(OC(F)(F)F)cc1)c1sccc1NCc1ccnc2ccccc12 [OSI-930, 3-[(4-quinolinylmethyl)amino]-N-[4-(trifluoromethoxy)phenyl]-2-thiophenecarboxamide] | 5.55 |
| O=c1cc(-c2ccc(O)c(O)c2)oc2cc(O)cc(O)c12 [Luteolin, 2-(3,4-Dihydroxyphenyl)-5,7-dihydroxy-4-chromenone] | 11.34 |
| CCC(C)C(CC)C(N)=O (stereo not drawn) [Valnoctamide, 2-ethyl-3-methyl-pentanamide] | 14.99 |
| COc1ccc(CNC(=O)Nc2ncc([N+](=O)[O-])s2)cc1 [AR-AO14418, N-(4-Methoxybenzyl)-N'-(5-nitro-1,3-thiazol-2-yl)urea] | 8.69 |
| O=C1CCc2c(ccc3ccccc23)O1 [Splitomycin, 1,2-Dihydro-3H-naphtho[2,1-b]pyran-3-one] | 9.79 |

Each molecule was assayed on KCC2 expression (assay: Western blot of KCC2 in cultured human RTT neurons). Settings: RTT neurons; additional application to Resveratrol.
Assay type: cell-based
Method: Protein samples were collected from cultured brain slices or cultured neurons in 12-well format with RIPA lysis buffer (in mM: 150 NaCl, 25 Tris-HCl, 1 EDTA, 1% NP-40, 1% sodium deoxycholate, 0.1% SDS, with protein kinase inhibitor and protease inhibitor, pH adjusted to 7.6). A sonication step was applied to homogenize tissue and extract protein, followed by a 10 minute centrifugation at 4° C. […] The PVDF membrane was blocked for 30 minutes with 5% milk in TBS+0.1% Tween 20 (TBST), and incubated overnight at 4° C. with primary antibodies diluted in TBST-milk at the following concentrations: KCC2 (1:2000, Millipore), NKCC1 (1:1000, Iowa Hybridoma bank), α-Tubulin (1:4000, Abcam), GAPDH (1:3000, Abcam), Actin (1:2000, Sigma Aldrich #A2066). The membrane was rinsed with TBST three times to wash off excess antibodies, and then incubated in secondary HRP antibodies in TBST-milk at 1:5000 concentration.
The PVDF membrane was then stripped using the Re-blot plus strong solution (Millipore), and re-immunoblotted for NKCC1 (˜150 kDa) to acquire KCC2/NKCC1 ratio. The area and intensity of protein signal was determined using ImageJ. The relative KCC2 and NKCC1 expression were calculated by normalizing protein signal to GAPDH or Tubulin loading control.

| Structure (SMILES) | effect on Resveratrol-induced KCC2 expression enhancement |
| --- | --- |
| NC(=O)C1CCCc2c1[nH]c1ccc(Cl)cc21 (stereo not drawn) [EX-527] | blocked KCC2 expression enhancement |

Same assay, conditions: RTT neurons; co-application with Piperine

| Structure (SMILES) | effect on Piperine-induced KCC2 expression |
| --- | --- |
| O=C(Nc1ccc(S(=O)(=O)C(F)(F)F)cc1)C1=CCN(c2ncccc2C(F)(F)F)CC1 [A784168] | eliminated the KCC2-inducing effect of Piperine |

Same assay, conditions: cultured human RTT neurons; Western blot

| Structure (SMILES) | KCC2 expression |
| --- | --- |
| COc1ccc(C(=O)Nc2sc3c(c2C(N)=O)CCC3)cc1OC [FLT3 Inhibitor-1, 2-(3,4-dimethoxybenzamido)-5,6-dihydro-4H-cyclopenta[b]thiophene-3-carboxamide] | significant enhancement of KCC2 expression |

The molecules below were run on KCC2 expression (KCC2-2A-luciferase reporter) (assay: KCC2-2A-luciferase reporter compound screening with wild type KCC2 reporter neurons). Settings: WT human KCC2 reporter neurons; LINCS 0.5 μM, IRSF/SMART and ICCB 10 μM, one week; Luc/CTG normalized to in-plate DMSO; hit = B score >3.
Assay type: cell-based
Excerpt: In addition, CRISPR/Cas9 genome editing technology was utilized to insert a 2A-luciferase reporter gene directly before the stop codon of the endogenous KCC2 locus in human ES cells, thus creating wild type (WT) cells isogenic to the MECP2-null RTT human KCC2 reporter neurons. KCC2 expression reporter human neurons were differentiated from the gene-targeted ES cells and utilized as the substrate for unbiased compound screening (FIG. 6A; see also FIG. 1A).
Gene-targeted KCC2 reporter cells were used in a HTS pipeline to screen for small molecule compounds that enhance KCC2 gene expression (FIG. 1B; note that reporter neurons were adapted to 384 well format for some screens, and the same workflow was used both for WT KCC2 reporter neurons and RTT KCC2 reporter neurons). Six replicate screens were performed in WT KCC2 reporter neurons using the LINCS and SMART libraries as well as the ICCB known bioactive library (FIG. 6B).
as §1
For some screens, on the day of the luciferase assay, the cells were washed with PBS three times using a BioTek EL406 plate washer. Cell lysis buffer (Promega, E1941, 1:5 diluted with water) was added at a volume of 100 μl per well for 96-well plates and 30 μl per well for 384-well plates, and incubated at room temperature for 10 minutes to lyse the cells. A fraction of the cell lysate (30 ul for 96-well, 5 ul for 384-well) was transferred to a new white, opaque plate and Cell Titer-Glo (CTG, Promega, G7572, diluted 2:5 in water) was added and incubated for 20 minutes at room temperature. CTG measures cellular ATP levels as a surrogate for cell viability. The reporter luciferase signal was assayed in the original source plate using Bright-Glo reagent per the manufacturer's protocol (Promega, E1501, 10 ul for 96-well plates, 3 ul for 384-well plates). Assay readouts were performed on a Tecan M1000 Infinite plate reader. For data analysis, the luciferase signal was normalized to the CTG signal to control for number of live cells per well. The Luc/CTG ratio data were then normalized to the in-plate DMSO control to calculate the signal induction fold change. Screening data were processed with CellHTS2 software package to calculate B-score (94)

| Structure (SMILES) | B Score |
| --- | --- |
| COc1cc2c(Oc3ccc(NC(=O)C4(C(=O)Nc5ccc(F)cc5)CC4)cc3F)ccnc2cc1OCCCN1CCOCC1 [Foretinib, N1′-[3-fluoro-4-[[6-methoxy-7-(3-morpholinopropoxy)-4-quinolyl]oxy]phenyl]-N1-(4-fluorophenyl)cyclopropane-1,1-dicarboxamide] | 4.05 |
| C[C@H](NCc1ccc(OCc2cccc(F)c2)cc1)C(N)=O [Safinamide, (2S)-2-[[4-[(3-fluorophenyl)methoxy]phenyl]methylamino] propanamide] | 4.82 |
| CC(C)(O)[C@H]1O[C@H]2CC[C@@]3(C)[C@@](O)(CC[C@H]4Cc5c([nH]c6ccccc56)[C@@]43C)C2=CC1=O [Paxilline, (2R,4bS,6aS,12bS,12cR,14aS)-5,6,6a,7,12,12b,12c,13,14,14a-Decahydro-4b-hydroxy-2-(1-hydroxy-1-methylethyl)-12b,12c-dimethyl-2H-pyrano[2″,3″:5',6']benz[1',2':6,7]indeno[1,2-b]indol-3(4bH)-one] | 4.1 |
| O=c1cc(-c2ccccc2)oc2c(O)c(O)ccc12 [7,8-Dihydroxyflavone] | 4.01 |
| Cc1nc2n(c(=O)c1CCN1CCC(c3noc4cc(F)ccc34)CC1)CCCC2O (stereo not drawn) [Paliperidone, 9-Hydroxyrisperidone] | 11.03 |
| CN(C)c1ccc(C=C2C(=O)Nc3ccccc32)cc1 [SU-4312, 3-(4-Dimethylaminobenzylidenyl)-2-indolinone] | 3.55 |
